According to PMC8094907 (The Journal of Biological Chemistry, 2021):

B1: 7620 (Trypanosoma brucei brucei TREU927) (protein)
chain: MTSINAQPPNSATYPQDDHGSAEVVNLNAEVERPQPEEQKDGGGCFARVSLFMATIIPPGGIAASAFNIGSTTVGAGIFGLPAAANSSGLVMAMIYLIIITAMTIFSIYALGVAAERTNIRTYEGVARALLGPWGAYYTAATRAFFSFSACVAYVISVGDILSATLKGTNAPDFLKQKSGNRLLTSLMWLCFMLPLVIPRHIDSLRHVSTIAFILMIYMVLVVVVHSCMNGLPENIKNVSVGKDDNAEIILFNSGNRAIEGLGVFIFSYLFQITAYEVYMDMTNRSVGKFVLVVTIAMGMCLPMYALTAFFGYMDFGRNVTGSVLLQYDPVNYPAVMVGFVGVLVMLFVSYALLGLACRNALYDVIGWDFREVAFWKHCIAVVTLSIVMLLCGLFIPKITTVLGFAGSFCGGSLGFILPALFFMYSGGFTWQKVGPFYYISTYVLLITGVIAAVFGTGATIWAVTVG

How the values were obtained:
7620 = biological target: T1, 7620 (Trypanosoma brucei, UniProt Q57V83); assay type: cell-based; details: pH 7.0, 30 °C, excess competitor
T1 construct: gene Tb08.30P3.140; full-length ORF, untagged, in pDR197; expressed in S. cerevisiae 22574d

[1] = substrate: O=C(O)[C@@H]1CCCN1; experiment: cells, lysate or membranes; details: pH 7.0, 30 °C, 100 mM glucose, labelled compound

Row | Molecule | relative uptake rate (%) 7620 | Km [1] [µM]
1 | C[C@H](N)C(=O)O [alanine] | proline being the best substrate, followed by alanine and cysteine | 
2 | N[C@@H](CS)C(=O)O [cysteine] | proline being the best substrate, followed by alanine and cysteine | 
3 | B1 |  | 600
